Laboratory results taken from patent publication US12673944B2, “Compounds having inhibitory activity against glucosylceramide synthase or pharmaceutically acceptable salt thereof, processes for preparing the same, and pharmaceutical compositions comprising the same” (YUHAN CORPORATION, priority 2019, dated 2026).

What was measured:
[1] = molecular target: T1, glucosylceramide synthase (GCS) (Homo sapiens, UniProt Q16739); experiment: GCS enzyme inhibition assay (A549 cell lysate, NBD C6-ceramide, HPLC fluorescence); type: biochemical; conditions: inhibitory activity against GCS, 37° C., 90 minutes
T1 construct: The obtained supernatant was used; host or cells: A549 cells (lysate supernatant after sonication)
T1 sequence (Q16739 1-394): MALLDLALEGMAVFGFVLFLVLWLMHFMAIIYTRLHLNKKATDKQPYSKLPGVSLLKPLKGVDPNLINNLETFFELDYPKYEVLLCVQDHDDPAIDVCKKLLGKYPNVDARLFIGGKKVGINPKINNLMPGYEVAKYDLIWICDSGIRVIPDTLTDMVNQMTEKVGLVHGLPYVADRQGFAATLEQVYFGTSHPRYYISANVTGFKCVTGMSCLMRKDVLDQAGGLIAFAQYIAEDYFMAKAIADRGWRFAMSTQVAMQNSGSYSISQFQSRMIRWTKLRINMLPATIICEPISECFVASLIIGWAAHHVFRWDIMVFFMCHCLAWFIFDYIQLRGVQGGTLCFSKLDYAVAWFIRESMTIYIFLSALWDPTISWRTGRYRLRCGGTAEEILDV
Experimental: Ibiglustat, known as a GCS inhibitor, was used as a control.
After the cells attached to the culture dish were washed with phosphate buffered saline (PBS), the cells were scraped off with a cell scraper and then centrifuged (4000 rpm, 3 min, 4° C.) to collect the cells in a 50 ml tube. The cell pellets were suspended in a lysis buffer (50 mM HEPES, pH 7.3, containing 1× the protease/phosphatase inhibitor cocktail), lysed by sonication, and then the lysate was centrifuged (13000 rpm, 10 min, 4° C.). The obtained supernatant was used for the quantitative analysis of proteins. The amount of proteins was measured using the BCA protein assay kit, using bovine serum albumin as a standard.
Enzymatic reactions were initiated by sequentially adding the following reaction materials to a 96 deep-well plate. Thereafter, the enzymatic reactions were performed at 37° C. for 90 minutes.
The enzymatic reactions were stopped by adding 100 μl of chloroform/methanol (2:1, v/v). After vortexing for 15 seconds, each mixture was centrifuged (4000 rpm, 10 min, 18° C.). The lower layer (50 μl) was transferred to a new 96 deep-well plate and dried with a reduced concentrator.
Data analysis was performed by the following equations. % Area(Sample)=Area(GlcCer)/[Area(Cer)+Area(GlcCer)]×100 % GCS activity=[Area(Sample)−Area(ibiglustat)]/[Area(DMSO)−Area(ibiglustat)]×100

[2] = tested on: GM1 production in Jurkat cells; experiment: cells; type: cell-based; conditions: Homo sapiens, Jurkat, 72 h

Compound | IC50 [1] | IC50 [2]
O=C(NC1CCOc2cc(-c3ccc(OC(F)F)cc3)ccc21)O[C@@H]1CN2CCC1CC2 (stereo partly drawn) [Example 32, (S)-quinuclidin-3-yl (7-(4-(difluoromethoxy)phenyl)chroman-4-yl)carbamate] | 3.34 nM | 48.6 nM
O=C(NC1CCOc2cc(-c3ccc(F)c(C(F)(F)F)c3)ccc21)O[C@@H]1CN2CCC1CC2 (stereo partly drawn) [Example 33, (S)-quinuclidin-3-yl (7-(4-fluoro-3-(trifluoromethyl)phenyl)chroman-4-yl)carbamate] | 1.43 nM | 10.8 nM
O=C(NC1CCOc2cc(-c3cc(Cl)cc(C(F)(F)F)c3)ccc21)O[C@@H]1CN2CCC1CC2 (stereo partly drawn) [Example 34, (S)-quinuclidin-3-yl (7-(3-chloro-5-(trifluoromethyl)phenyl)chroman-4-yl)carbamate] | 1.97 nM | 5.97 nM
O=C(NC1CCOc2cc(-c3ccc(C4CC4)cc3)ccc21)O[C@@H]1CN2CCC1CC2 (stereo partly drawn) [Example 35, (S)-quinuclidin-3-yl (7-(4-cyclopropylphenyl)chroman-4-yl)carbamate] | 2.77 nM | 5.44 nM
O=C(NC1CCOc2cc(-c3ccc4c(c3)OC(F)(F)O4)ccc21)O[C@@H]1CN2CCC1CC2 (stereo partly drawn) [Example 36, (S)-quinuclidin-3-yl (7-(2,2-difluorobenzo[d][1,3]dioxol-5-yl)chroman-4-yl)carbamate] | 1.53 nM | 11.1 nM
O=C(NC1CCOc2cc(-c3ccc4c(c3)OCCO4)ccc21)O[C@@H]1CN2CCC1CC2 (stereo partly drawn) [Example 37, (S)-quinuclidin-3-yl (7-(2,3-dihydrobenzo[b][1,4]dioxin-6-yl)chroman-4-yl)carbamate] | 1.4 nM | 9.47 nM
O=C(NC1CCOc2cc(C3=CCCO3)ccc21)O[C@@H]1CN2CCC1CC2 (stereo partly drawn) [Example 38, (S)-quinuclidin-3-yl (7-(2,3-dihydrofuran-5-yl)chroman-4-yl)carbamate] | 3.02 nM | 14.5 nM
N#Cc1cccc(-c2ccc3c(c2)OCCC3NC(=O)O[C@@H]2CN3CCC2CC3)c1 (stereo partly drawn) [Example 39, (S)-quinuclidin-3-yl (7-(3-cyanophenyl)chroman-4-yl)carbamate] | 1.82 nM | 7.73 nM
N#Cc1ccccc1-c1ccc2c(c1)OCCC2NC(=O)O[C@@H]1CN2CCC1CC2 (stereo partly drawn) [Example 40, (S)-quinuclidin-3-yl (7-(2-cyanophenyl)chroman-4-yl)carbamate] | 3.78 nM | 19.7 nM
CN(C)c1cccc(-c2ccc3c(c2)OCCC3NC(=O)O[C@@H]2CN3CCC2CC3)c1 (stereo partly drawn) [Example 41, (S)-quinuclidin-3-yl (7-(3-(dimethylamino)phenyl)chroman-4-yl)carbamate] | 0.52 nM | 0.45 nM
O=C(NC1CCOc2cc(-c3cc4ccccc4s3)ccc21)O[C@@H]1CN2CCC1CC2 (stereo partly drawn) [Example 42, (S)-quinuclidin-3-yl (7-(benzo[b]thiophen-2-yl)chroman-4-yl)carbamate] | 14 nM | 34.1 nM
O=C(NC1CCOc2cc(-c3coc4ccccc34)ccc21)O[C@@H]1CN2CCC1CC2 (stereo partly drawn) [Example 43, (S)-quinuclidin-3-yl (7-(benzofuran-3-yl)chroman-4-yl)carbamate] | 0.58 nM | 0.02 nM
O=C(NC1CCOc2cc(-c3cc4ccccc4o3)ccc21)O[C@@H]1CN2CCC1CC2 (stereo partly drawn) [Example 44, (S)-quinuclidin-3-yl (7-(benzofuran-2-yl)chroman-4-yl)carbamate] | 9.17 nM | 15.6 nM
O=C(NC1CCOc2cc(-c3ccc4cc[nH]c4c3)ccc21)O[C@@H]1CN2CCC1CC2 (stereo partly drawn) [Example 45, (S)-quinuclidin-3-yl (7-(1H-indol-6-yl)chroman-4-yl)carbamate] | 4.13 nM | 26.2 nM
O=C(NC1CCOc2cc(-c3c[nH]c4ccccc34)ccc21)O[C@@H]1CN2CCC1CC2 (stereo partly drawn) [Example 46, (S)-quinuclidin-3-yl (7-(1H-indol-3-yl)chroman-4-yl)carbamate] | 4.08 nM | 20.5 nM
O=C(NC1CCOc2cc(-c3cccc4cc[nH]c34)ccc21)O[C@@H]1CN2CCC1CC2 (stereo partly drawn) [Example 47, (S)-quinuclidin-3-yl (7-(1H-indol-7-yl)chroman-4-yl)carbamate] | 2.55 nM | 10.5 nM
O=C(NC1CCOc2cc(-c3cccc4[nH]ncc34)ccc21)O[C@@H]1CN2CCC1CC2 (stereo partly drawn) [Example 48, (S)-quinuclidin-3-yl (7-(1H-indazol-4-yl)chroman-4-yl)carbamate] | 6.27 nM | 42 nM
O=C(NC1CCOc2cc(-c3cccc4cn[nH]c34)ccc21)O[C@@H]1CN2CCC1CC2 (stereo partly drawn) [Example 49, (S)-quinuclidin-3-yl (7-(1H-indazol-7-yl)chroman-4-yl)carbamate] | 3.8 nM | 12.3 nM
Cn1ncc2ccc(-c3ccc4c(c3)OCCC4NC(=O)O[C@@H]3CN4CCC3CC4)cc21 (stereo partly drawn) [Example 50, (S)-quinuclidin-3-yl (7-(1-methyl-1H-indazol-6-yl)chroman-4-yl)carbamate] | 3.98 nM | 25.9 nM
Cn1ncc2c(-c3ccc4c(c3)OCCC4NC(=O)O[C@@H]3CN4CCC3CC4)cccc21 (stereo partly drawn) [Example 51, (S)-quinuclidin-3-yl (7-(1-methyl-1H-indazol-4-yl)chroman-4-yl)carbamate] | 1.02 nM | 4.99 nM
Cn1c(-c2ccc3c(c2)OCCC3NC(=O)O[C@@H]2CN3CCC2CC3)cc2ccccc21 (stereo partly drawn) [Example 52, (S)-quinuclidin-3-yl (7-(1-methyl-1H-indol-2-yl)chroman-4-yl)carbamate] | 7.06 nM | 24.8 nM
O=C(NC1CCOc2cc(-c3cncc4ccccc34)ccc21)O[C@@H]1CN2CCC1CC2 (stereo partly drawn) [Example 53, (S)-quinuclidin-3-yl (7-(isoquinolin-4-yl)chroman-4-yl)carbamate] | 1.77 nM | 2.66 nM
O=C(NC1CCOc2cc(-c3cccc4cnccc34)ccc21)O[C@@H]1CN2CCC1CC2 (stereo partly drawn) [Example 54, (S)-quinuclidin-3-yl (7-(isoquinolin-5-yl)chroman-4-yl)carbamate] | 2.14 nM | 14.1 nM
O=C(NC1CCOc2cc(-c3cnc4ccccc4c3)ccc21)O[C@@H]1CN2CCC1CC2 (stereo partly drawn) [Example 55, (S)-quinuclidin-3-yl (7-(quinolin-3-yl)chroman-4-yl)carbamate] | 3.58 nM | 22.3 nM
O=C(NC1CCOc2cc(-c3cccc4cccnc34)ccc21)O[C@@H]1CN2CCC1CC2 (stereo partly drawn) [Example 56, (S)-quinuclidin-3-yl (7-(quinolin-8-yl)chroman-4-yl)carbamate] | 1.38 nM | 6.03 nM
O=C(NC1CCOc2cc(-c3ccc4ccncc4c3)ccc21)O[C@@H]1CN2CCC1CC2 (stereo partly drawn) [Example 57, (S)-quinuclidin-3-yl (7-(isoquinolin-7-yl)chroman-4-yl)carbamate] | 3.52 nM | 36.6 nM
O=C(NC1CCOc2cc(-c3ccc4c(c3)OCCCO4)ccc21)O[C@@H]1CN2CCC1CC2 (stereo partly drawn) [Example 58, (S)-quinuclidin-3-yl (7-(3,4-dihydro-2H-benzo[b][1,4]dioxepin-7-yl)chroman-4-yl)carbamate] | 2 nM | 21.2 nM
O=C(NC1CCOc2cc(-c3cccc(-c4ccccc4)c3)ccc21)O[C@@H]1CN2CCC1CC2 (stereo partly drawn) [Example 59, (S)-quinuclidin-3-yl (7-([1,1′-biphenyl]-3-yl)chroman-4-yl)carbamate] | 0.3 nM | 2.22 nM
